Laboratory results from patent US20050250944A1, “Synthesis and uses of synephrine derivatives” (priority 2004, published 2005).
“Also recorded” adds a separate entry of the source. Counter-ions that a name gives are not always drawn.

What was measured:
adipose tissue = details: Pilkington, Cernohorsky, Muhlbachova, Wenkeova et al.; cited from earlier work
human adipocytes = assay: Test of lipolytic capacity on human adipocytes (glycerol release); format: cell-based; details: for maximal lipolytic response elicited: glycerol released by human abdominal subcutaneous adipocytes, 90 min at 37° C., basal 0%, isoproterenol 100%
From the text: The lipolytic capacity of the Synephrine Derivatives can be tested in human adipocytes. For the sake of convenience, for Examples 21 to 24, the known 2-isopropylamino-1-(4-hydroxyphenyl)-ethanol hydrochloride (Formula shown in Example 12, above, also known as isopropylnorsynephrine hydrochloride) is used here as a non-limiting example of a Synephrine Derivative.
In this example, the lipolytic property of isopropylnorsynephrine hydrochloride was compared to that of synephrine hydrochloride (Formula shown in Example 15). The index of lipolytic activity chosen was the glycerol released by freshly originated human adipocytes with reference to basal (0%, without any drug) and maximal (100%) responses to a standard lipolytic reference: isoproterenol.
Adipocytes were isolated from samples of subcutaneous abdominal adipose depot freshly obtained during abdominal lipectomy. The surgical interventions were conducted under general anaesthesia on ten healthy women undergoing abdominal plastic surgery. The human samples were transferred in less than 15 min to the laboratory for adipocyte preparation. The human abdominal subcutaneous adipocytes were obtained by collagenase digestion of the fresh samples of adipose tissue. The isolation, washing, handling and distribution of fat cells were carried out according to the technique described in Carpene, “Assays of Adrenergic Receptors: Including Lipolysis and Binding Measurements”, from Methods in Molecular Biology, supra. Briefly, extemporaneous dilutions of the tested drugs were added in 4 μl in plastic vials which received 400 μl of freshly prepared adipocyte suspension. The given concentrations were the final concentrations in which the cells were incubated for 90 min at 37° C. under gentle shaking. At the end of the experiment, the glycerol released by the cells was determined on an aliquot as described in Carpene, Id.
The mean lipid content in the incubation vials was 17.6±1.0 mg/400 μl, which corresponded to approximately 500,000 cells/vial.

β-adrenergic = details: literature; cited from earlier work
[1] = literature; cited from earlier work
β3-adrenoceptors = biological target: T1, β3-adrenoceptors (Rattus norvegicus, UniProt P26255); details: Carpene et al. 1999; cited from earlier work
T1 construct: comparative studies in mammalian fat cells; host or cells: mammalian fat cells (adipocytes), endogenous receptor
T1 sequence (P26255 whole entry): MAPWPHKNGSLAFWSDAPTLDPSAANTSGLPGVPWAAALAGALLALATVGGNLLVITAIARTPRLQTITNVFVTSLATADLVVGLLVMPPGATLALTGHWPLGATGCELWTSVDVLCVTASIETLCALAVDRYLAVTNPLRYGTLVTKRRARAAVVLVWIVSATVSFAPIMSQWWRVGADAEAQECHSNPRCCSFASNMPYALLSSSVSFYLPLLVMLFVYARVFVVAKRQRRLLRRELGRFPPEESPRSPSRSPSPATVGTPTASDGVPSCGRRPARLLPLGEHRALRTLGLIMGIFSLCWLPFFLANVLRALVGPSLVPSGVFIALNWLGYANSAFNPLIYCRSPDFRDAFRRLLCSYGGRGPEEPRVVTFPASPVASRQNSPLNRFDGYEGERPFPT

rat adipocyte = details: Carpene et al.; cited from earlier work
human fat cells = details: Carpene et al.; cited from earlier work
[2] = long use in China; Zhao et al. 1989; cited from earlier work
[3] = ratio to synephrine hydrochloride

CCCCNCC(O)c1ccc(O)cc1 (stereo not drawn) [Bamethan, 2-butylamino-1-(4-hydroxyphenyl)-ethanol]
lipid mobilization properties in vitro (adipose tissue): have lipid mobilization properties in vitro

CCNCC(O)c1ccc(O)cc1 (stereo not drawn) [ethylnorsynephrine, 2-ethylamino-1-(4-hydroxyphenyl)-ethanol]
lipid mobilization properties in vitro (adipose tissue): have lipid mobilization properties in vitro

CC(C)NCC(O)c1ccc(O)cc1 (stereo not drawn) [isopropylnorsynephrine hydrochloride, 2-Isopropylamino-1-(4-hydroxyphenyl)-ethanol hydrochloride]
lipolytic effect at low concentration versus synephrine hydrochloride (human adipocytes; 1μg/mL versus synephrine hydrochloride at 100 μg/mL): still far greater than that of synephrine hydrochloride
maximal lipolytic response elicited (human adipocytes; FIG. 1): ~60%
lipolytic property on human fat cells (in words) (human adipocytes; human adipocytes, FIG. 1, hydrochloride): strong lipolytic property; also recorded: superior than synephrine hydrochloride
capacity to stimulate human adipocytes lipolysis compared to synephrine hydrochloride (human adipocytes; [3]): 2 times
lipolytic potency relative to synephrine hydrochloride (human adipocytes; [3]): ~100 times

CC(C)NCC(O)c1ccc(O)cc1 (stereo not drawn) [isopropylnorsynephrine, 2-isopropylamino-1-(4-hydroxyphenyl)-ethanol]
adrenergic activity (in words) (β-adrenergic): pure β-adrenergic activity
lipid mobilization properties in vitro (adipose tissue): have lipid mobilization properties in vitro
plasma free fatty acid level in vivo [1]: can increase plasma free fatty acid level in vivo

NCC(O)c1ccc(O)cc1 (stereo not drawn) [octopamine, 2-amino-1-(4-hydroxyphenyl)-ethanol]
selective action on β3-adrenoceptors (β3-adrenoceptors): can selectively act on β3-adrenoceptors; also recorded: selective activation of β3-adrenoceptor
rat adipocyte lipolysis (rat adipocyte): effective
effect on human fat cells (lipolysis) (human fat cells): ineffective

CC(C)(Cc1ccccc1)NCC(O)c1ccc(O)cc1 (stereo not drawn) [phenyl-t-butylnorsynephrine, 2-(phenyl-t-butylamino)-1-(4-hydroxyphenyl)-ethanol]
lipid mobilization properties in vitro (adipose tissue): have lipid mobilization properties in vitro

CCCNCC(O)c1ccc(O)cc1 (stereo not drawn) [propylnorsynephrine, 2-propylamino-1-(4-hydroxyphenyl)-ethanol]
lipid mobilization properties in vitro (adipose tissue): have lipid mobilization properties in vitro

CNCC(O)c1ccc(O)cc1 (stereo not drawn) [synephrine hydrochloride, 2-Methylamino-1-(4-hydroxyphenyl)-ethanol hydrochloride, reference compound]
maximal lipolytic response elicited (human adipocytes; FIG. 1): ~30%

CNCC(O)c1ccc(O)cc1 (stereo not drawn) [synephrine, 2-methylamino-1-(4-hydroxyphenyl)-ethanol]
adrenergic activity (in words) (β-adrenergic): both α- and β-adrenergic activity
lipid mobilization properties in vitro (adipose tissue): have lipid mobilization properties in vitro
plasma free fatty acid level in vivo [1]: can increase plasma free fatty acid level in vivo
effect on blood pressure [2]: increase blood pressure

CC(C)(C)NCC(O)c1ccc(O)cc1 (stereo not drawn) [tert-butylnorsynephrine, 2-tert-butylamino-1-(4-hydroxyphenyl)-ethanol]
lipid mobilization properties in vitro (adipose tissue): have lipid mobilization properties in vitro
